From article PMC4807051, “Determinants of Cofactor Specificity for the Glucose-6-Phosphate Dehydrogenase from Escherichia coli: Simulation, Kinetics and Evolutionary Studies” (PLoS ONE, 2016) come the findings set out here.

Assay [1] concerns the target T1, EcG6PDH; glucose-6-phosphate dehydrogenase from Escherichia coli (Escherichia coli, UniProt P0AC53, R50A).
T1 construct: gene zwf; full length; N-terminal 6xHis tag cut by TEV protease (Gly-His left before Met1); plasmid pET-TEV-EcG6PDH from pETG6PDH
As to the kind of experiment: NAD(P)H formation at […] nm, Michaelis-Menten fit. It is filed as biochemical. The settings on record: co-substrate NADP+ at 10 times its KM; 25°C.

Assay [2] deals with T2, EcG6PDH; glucose-6-phosphate dehydrogenase from Escherichia coli (Escherichia coli, UniProt P0AC53, K18A).
T2 construct: gene zwf; full length; N-terminal 6xHis tag cut by TEV protease (Gly-His left before Met1); plasmid pET-TEV-EcG6PDH from pETG6PDH
As to the kind of experiment: NAD(P)H formation at […] nm, Michaelis-Menten fit. The settings on record: co-substrate NADP+ at 10 times its KM; 25°C. It is filed as biochemical.

Each structure is given as a SMILES string.

For the compound `O=P(O)(O)OC[C@H]1OC(O)[C@H](O)[C@@H](O)[C@@H]1O` (some centres unmarked) [G6P], the “apparent KM” value in assay [1] and in assay [2] was “we determined the effect of the mutations on the apparent kinetic parameters for G6P” throughout.
